Compound	melting point [°C]
O=Cc1csc2ccc(Cl)cc12	109 to 111
CN1CCN(c2cccc([N+](=O)[O-])c2)CC1	60 to 62
O=C1NCNC1(c1ccccc1)c1ccccc1	183
O=C(O)C(=Cc1ccccc1)C(=Cc1ccccc1)C(=O)O	223
Cc1onc(-c2ccccc2)c1CBr	61 to 63
Cc1cc(C)c(C2Oc3c(Cl)c(Cl)c(Cl)c(Cl)c3O2)cc1C	188
CC1=NN(c2ccccc2)C(=O)C1C(c1ccc(O)cc1)C1C(=O)N(c2ccccc2)N=C1C (stereo unspecified)	241
O=C(O)C=Cc1ccc(Sc2ccc(Cl)cc2)c([N+](=O)[O-])c1	233 to 235
CCCc1cc(C)cc(C)c1	-59
Oc1cc(C(F)(F)F)nc2cc(Cl)cc(Cl)c12	230
O=c1[nH]c2ccc(Br)cc2s1	228 to 232
S=C=Nc1cc(Br)ccc1Br	49 to 51
Cc1ccc2c3ccccc3c3ccccc3c2c1	100
ON=Cc1c(Cl)cccc1Cl	149
Cc1ccc2cc3nc(C)ccc3cc2n1	237 to 238
CC(C)CCCC(C)(C)C	-105
CN1CCN(Cc2ccc(I)cc2)CC1	105 to 106
Oc1ccc2c(c1)OCO2	63 to 65
NC=S	26.5
O=C(O)c1c(F)c(Cl)c(F)c(Cl)c1F	142 to 143
COc1ccc2cc(Br)ccc2c1CCl	144 to 146
N#Cc1cccc(N=C=O)c1	53

Compound	melting point [°C]
O=C1CCC(c2ccccc2)=NN1c1n[nH]c(=S)n1-c1ccccc1	180 to 182
CC(C)(C)N=O	81 to 83
Cc1ccc2nc(C(F)(F)F)cc(Cl)c2c1	62 to 65
CCCC(=O)c1ccc(F)cc1	37
BrCC(Br)C1CCC(Br)C(Br)C1 (stereo unspecified)	70
Oc1cc(Cl)cnc1O	295
O=C1C=CC(=O)N1c1ccc(-c2nc3ccccc3o2)cc1	211 to 213
CCOP(=S)(OCC)Oc1nc(Cl)n(C(C)C)n1	< 25
O=C(c1ccccc1)c1ccc(-c2ccc(Br)cc2)cc1	157
C=CCc1ccc(O)cc1	15.8
CCc1nc2ccccc2[nH]1	175
COc1ccc(Cc2c(N)nn3c(C)cc(C)nc23)cc1	159 to 160
O=[N+]([O-])c1ccc(-c2nnc3sc(/C=C/c4ccccc4)nn23)cc1	112 to 114
O=C(Nc1ccc(F)cc1)c1cccc(Oc2cccc(C(F)(F)F)c2)n1	107
O=C(COc1ccc(Cl)cc1)n1c(=O)sc2ccccc21	143
CNC(=S)N(C)C	126 to 127
ON=Cc1ccc[nH]1	165
O=C1OC(=O)c2cc(Br)ccc21	107
FC(F)(F)c1cccnc1Cl	39
CCn1c2ccc(Br)cc2c2cc(Br)ccc21	139
CC12CCC3C4CCC(=O)C=C4CCC3C1CCC2OC(=O)CCc1ccccc1 (stereo unspecified)	118
CN1CCOCC1	-65

Compound	melting point [°C]
O=Cc1c[nH]c2cccc(Br)c12	179 to 180
Cc1onc(-c2c(F)cccc2Cl)c1C(=O)Cl	51
N#Cc1c([N+](=O)[O-])ccc(Cl)c1Cl	90 to 93
CCCCCCCCCCCCCCCBr	19
N#CCCCCCCCCC#N	7
O=[N+]([O-])c1ccc(O)c(CBr)c1	145 to 149
N#Cc1ccc[nH]c1=O	222 to 225
O=C(Nc1ccc(Cl)c(Cl)c1)c1cc(Cl)ccc1O	247
O=C1CC(=O)N(c2ccccc2)N1	191
c1ccc(C(OC[C@H]2CO2)(c2ccccc2)c2ccccc2)cc1	98 to 101
ICCCCCCCCCCI	30
CCOC(=O)C=Cc1ccc(N)cc1	73
c1ccc(CON=C(c2cc3ccccc3o2)c2cc3ccccc3o2)cc1	127 to 128
O=C1NN(c2ccccc2)C(=O)C1=Cc1ccc(F)cc1	300
ON=Cc1sccc1Oc1ccccc1	105 to 106
COc1nn(-c2ccccc2)cc1/C=C/C=O	131 to 133
CC1=C(O)C(=O)C2OC2C1=O (stereo unspecified)	127
Cc1ccc(/N=N/c2c(N)nn3c(C)cc(=O)[nH]c23)cc1	285
Nc1cccc(Oc2ccccn2)c1	76 to 78
CCC(CC)C(=O)O	-14
Sc1c(Cl)cccc1Cl	45 to 50
COC(=O)C(C)Cl (stereo unspecified)	-10

Compound	melting point [°C]
c1cc(-c2cnco2)ccn1	127 to 128
S=c1[nH]c2ncccc2o1	243 to 246
Cc1csc(NS(=O)(=O)c2ccc(N)cc2)n1	237
O=Cc1ccc(Oc2ccccn2)cc1	45 to 46
OCc1ccc(Br)cn1	59 to 60
O=c1[nH]nc(-c2ccccc2)c(=S)n1-c1ccc(F)c(Cl)c1	138
Clc1ccc(-c2cc[nH]n2)cc1	80 to 84
C#CC(O)CCC (stereo unspecified)	-80
Oc1ccc(/C=C/c2ccccc2)cc1	185 to 189
CCCCCCCCCCCC(C)CC (stereo unspecified)	-32
COc1cc(C2c3cc4c(cc3C(O)C3COC(=O)C23)OCO4)cc(OC)c1OC (stereo unspecified)	228
S=C=Nc1ccccc1Br	20
CCOC(=O)CCCCCCC(=O)OCC	5.9
OCc1ccc2[nH]cnc2c1	129 to 131
CCC(=O)c1ccc(C(F)(F)F)cc1	36 to 37
O=C(O)CCn1cncn1	177 to 179
Oc1ccc(O)c(Cc2ccccc2)c1	106
FC(F)(Cl)C(Cl)(Cl)Cl	40.6
CSc1nsc(SC)c1C(N)=O	214 to 216
BrCc1cccc(-c2ccsc2)c1	70
Cc1nc(-c2ccc(Br)cc2)no1	98 to 99

Second part, the compound after the results:

melting point [°C]	Compound
254 to 255	CC(O)[C@@]1(O)CC[C@H]2[C@@H]3CCC4(C)C[C@H](O)CC[C@]4(C)[C@H]3CC[C@@]21C (stereo partly specified)
222	CC(=O)C1(O)CCC2C3CCC4=CC(=O)CCC4(C)C3CCC21C (stereo unspecified)
95	CC(=O)CCc1cc2c(cc1[N+](=O)[O-])CCC(C)N2 (stereo unspecified)
37	Cc1cccc(O)c1[N+](=O)[O-]
69 to 70	Cc1cc(Br)c(OCC(=O)NN)c2c1CCC2
73 to 75	NC(=O)CCOC1CCN(Cc2ccccc2)CC1
12.8	c1cc2c3c(c1)CCC3CCC2 (stereo unspecified)
115 to 117	CCOC(=O)c1cnc2c(c(C)nn2C)c1Oc1cc(Cl)cc(Cl)c1
20	O=C1CCCN1CCO
104 to 108	CC(CC(C)C(=O)O)C(=O)O (stereo unspecified)
58	COc1cc(C)c(S(=O)(=O)Cl)c(C)c1C
189	NNC(=O)COc1ccc([N+](=O)[O-])cc1
72 to 74	COC(=O)c1nn2ccccc2c1C(=O)OC
127	OC1(C2(O)CCCCC2)CCCCC1
174	CC(C)[C@]12C/C(=N\NC(N)=O)[C@H](C)[C@H]1C2
133	COc1cc(C=O)c([N+](=O)[O-])cc1OC
164	COc1ccc2c(c1)c1c3n2CCN(C)C3=NCC1
256 to 260	O=C(O)C1Cc2cc(O)ccc2CN1 (racemic)
100	COC(=O)[C@H](CSSC[C@@H](C(=O)OC)N1C(=O)[C@@H]2[C@H](C1=O)[C@@H]1C=C[C@H]2C1)N1C(=O)[C@@H]2[C@H](C1=O)[C@@H]1C=C[C@H]2C1
60 to 62	Cc1c(Br)cc(C(=O)Cl)c(C)c1C
180	CCNC(=O)C=C(C)C=CC=C(C)C=Cc1c(C)cc(OC)c(C)c1C
217	CNc1ccc(O)c2c1C(=O)c1c(O)ccc(NC)c1C2=O

melting point [°C]	Compound
175	CC1=C(C(=O)OCc2ccccc2)C(c2ccccc2)NC(=S)N1 (stereo unspecified)
34 to 35.5	COc1cc(N=C=O)cc(OC)c1
-29	CC1CCCCC1(C)C (stereo unspecified)
215	Nc1ccc(C(=O)O)cc1N
131	CC(=O)C(C(=O)c1ccccc1)c1cc(Cl)c([N+](=O)[O-])cc1[N+](=O)[O-] (stereo unspecified)
250	Cc1ccc2cc(C(=O)O)ccc2n1
14.5	COc1ccc(O)c(C=O)c1
235	CC(=O)OCC(=O)C1(O)C(OC(C)=O)CC2C3CCC4=CC(=O)C=CC4(C)C3(F)C(O)CC21C (stereo unspecified)
85	O=C(OCC1c2ccccc2-c2ccccc21)Oc1c(F)c(F)c(F)c(F)c1F
-21	COC(=O)CCCCCC(=O)OC
299	Cn1ncc2c(NCCOC(=O)c3cc([N+](=O)[O-])cc([N+](=O)[O-])c3)ncnc21
120 to 121	O=C1C(=Cc2ccco2)SC(=S)N1CN1CCCCC1
114	Cc1cc(C=O)cc(C)c1O
172	O=C(O)c1cnc(Cl)c(Br)c1
55 to 57	N#Cc1ccnc(N2CCCCC2)c1
29	CCOC(=O)c1cc(C)on1
62 to 64	O=C(Oc1c(F)c(F)c(F)c(F)c1F)c1ccccc1OC1CCOCC1
96 to 100	CC(=O)OC[C@H]1O[C@@H](OCc2ccccc2)[C@H](OC(C)=O)[C@@H](OC(C)=O)[C@@H]1OC(C)=O
170	Cc1nc2n(c(=O)c1CCN1CCC(c3noc4cc(F)ccc34)CC1)CCCC2
68.5 to 70.5	O=C=Nc1ccc(OC2CCOCC2)nc1
150	CCOC(=O)C1CCN(c2nc(Cl)nc(Cl)n2)CC1
285	Cc1cc(=O)[nH]c2c(/N=N/c3ccc(O)cc3)c(N)nn12

— a melting point compilation (Tetko et al.)
